The text below walks through data of patent US10940141B1, “Methods for the administration of certain VMAT2 inhibitors” (Neurocrine Biosciences, Inc., priority 2019, dated 2021).

Each structure is given as a SMILES string.

For series [1] the following is noted: cited from earlier work.
Series [2] is described as follows: Phase 1, open-label, single-dose PK study of valbenazine in subjects with normal renal function or severe renal impairment. In kind it is in vivo, human. To be noted: for effect of severe renal impairment on AUC0-∞ / effect of severe renal impairment on Cmax: single dose valbenazine 40 mg (free base equivalent as ditosylate), fasted, severe renal impairment compared to normal renal function; for effect of renal status on protein binding: severe renal impairment vs normal renal function. How it is done: (§1) This was a Phase 1, open-label, single-dose, PK study of valbenazine to assess the safety and PK of valbenazine and its metabolites in subjects with normal renal function or severe renal impairment. A total of 16 subjects (8 with severe renal impairment and 8 with normal renal function) received a single dose of valbenazine 40 mg (free base equivalent as the ditosylate salt) under fasted conditions.

A short description of series [3]: Safety and tolerability in the Phase 1 single-dose study (TEAEs, laboratory tests, vital signs, ECG). Format: in vivo, human. How it is done: as §1
Setting [4] is: valbenazine 40 mg single dose, all 16 subjects.

Consider `COc1cc2c(cc1OC)[C@H]1C[C@@H](OC(=O)[C@@H](N)C(C)C)[C@H](CC(C)C)CN1CC2` [Valbenazine ditosylate, L-Valine, (2R,3R,11bR)-1,3,4,6,7,11b-hexahydro-9,10-dimethoxy-3-(2-methylpropyl)-2H-benzo[a]quinolizin-2-yl ester, 4-methylbenzenesulfonate (1:2)], for which the solubility in water entry in series [1] is “slightly soluble”.

Turning to `COc1cc2c(cc1OC)[C@H]1C[C@@H](OC(=O)[C@@H](N)C(C)C)[C@H](CC(C)C)CN1CC2` [valbenazine, (S)-2-amino-3-methyl-butyric acid (2R, 3R,11bR)-3-isobutyl-9,10-dimethoxy-1,3,4,6,7,11b-hexahydro-2H-pyrido[2,1-a]isoquinolin-2-yl ester], in series [2] (single dose valbenazine 40 mg), the “urine clearance in subjects with severe renal impairment compared with normal renal function” value was “reduction” and the “effect of renal status on protein binding” value was “little effect”. Moreover, in series [2], the “effect of severe renal impairment on AUC0-∞” value (from here on “effect … on AUC0-∞”) is on record as “no clinically meaningful effect” and the “effect of severe renal impairment on Cmax” value (“effect … on Cmax” for short) is recorded as “no clinically meaningful effect”. Moreover, in series [3] (normal renal function group), the “treatment-related TEAE headache” value was 1 subject and the “treatment-related TEAE somnolence” value was found to be 1 subject. In series [3] (severe renal impairment group), the “treatment-related TEAE somnolence” value was found to be 1 subject and the “treatment-related TEAE vision blurred” value amounted to 1 subject. In addition, in series [3] (valbenazine 40 mg single dose), the “subjects with QTcF increase from baseline >60 msec” value is “No subject” and the “subjects with QTcF interval >480 msec” value is “No subject”. The “subjects who experienced TEAEs, each of the renal function groups” value in series [3] (valbenazine 40 mg single dose, 8 subjects per group (normal renal function; severe renal impairment)) is 2 (25.0%) subjects. For the same molecule, in series [3] (valbenazine 40 mg single dose, 16 subjects (8 normal renal function, 8 severe renal impairment)), the tolerability entry is recorded as “well tolerated”. Besides, in series [3] (setting [4]), the “deaths, serious or severe TEAEs, or discontinuations due to a TEAE” value is on record as “no deaths, serious or severe TEAEs, or discontinuations due to a TEAE”; the “subjects who experienced TEAEs, overall” value is reported as 4 (25.0%) subjects; the “treatment-related TEAEs reported” value came to 3 subjects. The “changes in clinical laboratory tests, vital sign measurements, weight, or ECG parameters” value in series [3] (valbenazine 40 mg single dose, during the study) is on record as “no clinically significant changes”.

As to `COc1cc2c(cc1OC)[C@H]1C[C@@H](OC(=O)[C@@H](N)C(C)(C)O)[C@H](CC(C)C)CN1CC2` [NBI-136110], in series [2], the “effect … on AUC0-∞” value was “no clinically meaningful effect” and the “effect … on Cmax” value is on record as “no clinically meaningful effect”.

In the case of `COc1cc2c(cc1OC)[C@H]1C[C@@H](O)[C@H](CC(C)C)CN1CC2` [NBI-98782, (2R, 3R,11bR)-3-isobutyl-9,10-dimethoxy-1,3,4,6,7,11b-hexahydro-2H-pyrido[2,1-a]isoquinolin-2-ol], in series [2], the “effect … on AUC0-∞” value is on record as “no clinically meaningful effect” and the “effect … on Cmax” value is reported as “no clinically meaningful effect”. The “effect of renal status on protein binding” value in series [2] (single dose valbenazine 40 mg) is reported as “little effect”.
